# Results as given in patent publication US20170095522A1, “Compositions Containing Extracts of Curcuma SPP and Zingiber officinale Which Are Useful to Reduce Peripheral Inflammation and Pain” (INDENA S.p.A., priority 2015, published 2017).
# Marks after values point to notes of the source that are not given here.
# What was measured:
# [1] = tested on: patients with grade I or II hip osteoarthritis; test: Karnofsky Performance Scale Index in 8-month hip osteoarthritis study; format: in vivo, human
# Procedure: The clinical end-points (WOMAC score, Karnofsky Performance Scale Index and treadmill walking performance) were evaluated for the single agents and for the combination of the two vs. a placebo. […] 100 patients with grade I or II hip osteoarthritis, confirmed by X-ray analysis, were enrolled in the study. The patients were allowed to self-medicate with NSAIDs during the 8-month trial. […] Group C received a combination of curcumin and Zingiber officinale at the same doses as reported above for the single ingredients. The last group received a corresponding placebo. To ensure clinical homogeneity, the main location of the osteoarthritis in these subjects, and the source of most of their signs and symptoms, was in one or both hips. Primary osteoarthritis in one or both hips was diagnosed by X-ray investigation. The subjects had mild to moderate pain not adequately or completely controlled with anti-inflammatory drugs. They had to be able to perform the treadmill walking test and to understand all the questions in the WOMAC questionnaire. The Karnofsky Performance Scale Index was used to classify the patients in terms of functional impairment. The Karnofsky Performance Scale Index can be used to compare the effectiveness of different treatments and to assess the prognosis in individual patients. The lower the Karnofsky score, the worse the patient's functional impairment. The variations in the results (i.e. walking distance) were considered parametric. Non-parametric observations (e.g. the WOMAC score) were evaluated with analysis of variance (ANOVA with the Bonferroni correction). Considering the possible intra-individual and inter-individual data variations, at least 40 completing subjects were needed for this type of study (at least 40 subjects who completed the entire follow-up period in each group). This numerical value was established, on the basis of our previous study, with a view to eliminating spontaneous variability and time variations. OA and its related signs/symptoms, even under conditions of relative stability, may have a spontaneous degree of variability associated with periods of improvement. Clinical variations in signs/symptoms, walking distance, oedema and the Karnofsky scale may be due to various clinical and non-clinical (i.e.
# [2] = tested on: patients with grade I or II hip osteoarthritis; test: WOMAC scores (signs/symptoms of osteoarthritis) in 8-month hip osteoarthritis study; format: in vivo, human
# Procedure: The clinical end-points (WOMAC score, Karnofsky Performance Scale Index and treadmill walking performance) were evaluated for the single agents and for the combination of the two vs. a placebo. […] 100 patients with grade I or II hip osteoarthritis, confirmed by X-ray analysis, were enrolled in the study. The patients were allowed to self-medicate with NSAIDs during the 8-month trial. […] Group C received a combination of curcumin and Zingiber officinale at the same doses as reported above for the single ingredients. The last group received a corresponding placebo. To ensure clinical homogeneity, the main location of the osteoarthritis in these subjects, and the source of most of their signs and symptoms, was in one or both hips. Primary osteoarthritis in one or both hips was diagnosed by X-ray investigation. The subjects had mild to moderate pain not adequately or completely controlled with anti-inflammatory drugs. They had to be able to perform the treadmill walking test and to understand all the questions in the WOMAC questionnaire. The questionnaire developed by the Western Ontario and McMaster Universities was applied to describe and rate the symptoms of OA. The questionnaire produces scores for the various symptoms of OA (WOMAC scores). The status of the OA signs/symptoms was evaluated by the investigator together with the patient on inclusion, and after 1 month, 4 months and 8 months treatment. The variations in the results (i.e. walking distance) were considered parametric. Non-parametric observations (e.g. the WOMAC score) were evaluated with analysis of variance (ANOVA with the Bonferroni correction). Considering the possible intra-individual and inter-individual data variations, at least 40 completing subjects were needed for this type of study (at least 40 subjects who completed the entire follow-up period in each group). This numerical value was established, on the basis of our previous study, with a view to eliminating spontaneous variability and time variations. OA and its related signs/symptoms, even under conditions of relative stability, may have a spontaneous degree of variability associated with periods of improvement. Clinical variations in signs/symptoms, walking distance, oedema and the Karnofsky scale may be due to various clinical and non-clinical (i.e.
# [3] = tested on: patients with grade I or II hip osteoarthritis; test: Treadmill walking test, total pain-free distance; format: in vivo, human; settings: 3 km/hour, 10% incline
# Procedure: The clinical end-points (WOMAC score, Karnofsky Performance Scale Index and treadmill walking performance) were evaluated for the single agents and for the combination of the two vs. a placebo. […] 100 patients with grade I or II hip osteoarthritis, confirmed by X-ray analysis, were enrolled in the study. The patients were allowed to self-medicate with NSAIDs during the 8-month trial. […] Group C received a combination of curcumin and Zingiber officinale at the same doses as reported above for the single ingredients. The last group received a corresponding placebo. To ensure clinical homogeneity, the main location of the osteoarthritis in these subjects, and the source of most of their signs and symptoms, was in one or both hips. Primary osteoarthritis in one or both hips was diagnosed by X-ray investigation. The subjects had mild to moderate pain not adequately or completely controlled with anti-inflammatory drugs. They had to be able to perform the treadmill walking test and to understand all the questions in the WOMAC questionnaire. […] On inclusion and after 1 month, 4 months and 8 months treatment, the patient's performance was evaluated with the treadmill test at a speed of 3 km/h and an incline of 10%. The total pain-free distance was recorded. […] Non-parametric observations (e.g. the WOMAC score) were evaluated with analysis of variance (ANOVA with the Bonferroni correction). […]
# [4] = preliminary clinical trials; oral; cited from earlier work
# [5] = cited from earlier work
smiles,measurement,setting,value
"COc1cc(/C=C/C(=O)CC(=O)/C=C/c2ccc(O)c(OC)c2)ccc1O [Curcumin, curcumin]",Karnofsky scale (median),"[1]; 1 month treatment, curcumin 1000 mg/day and/or Zingiber officinale extract 100 mg/day",77
same,Karnofsky scale (median),"[1]; 4 months treatment, curcumin 1000 mg/day and/or Zingiber officinale extract 100 mg/day",80*
same,"Karnofsky Scale scores, result in words",[1]; 8-month study,significantly improved
same,Karnofsky scale (median),"[1]; 8 months treatment, curcumin 1000 mg/day and/or Zingiber officinale extract 100 mg/day",81*
same,Karnofsky scale (median),"[1]; Inclusion (baseline), hip osteoarthritis patients",73
same,WOMAC Pain mean score,[2]; 1 month treatment,13
same,WOMAC Physical functions mean score,[2]; 1 month treatment,45
same,WOMAC Stiffness mean score,[2]; 1 month treatment,5
same,WOMAC Pain mean score,[2]; R = recruitment (baseline),16
same,WOMAC Physical functions mean score,[2]; R = recruitment (baseline),55
same,WOMAC Stiffness mean score,[2]; R = recruitment (baseline),7
same,"WOMAC pain scores, result in words","[2]; after one month's administration, p<0.05",fell significantly
same,"Treadmill distance (median), total pain-free distance",[3]; 1 month treatment,100*
same,"Treadmill distance (median), total pain-free distance",[3]; R = recruitment (baseline),77
same,Bioavailability,[4],low bioavailability
same,Solubility in water and fats,[5],poorly soluble
